# Measurements taken from patent US20230089605A1, “USE OF DOXYCYCLINE, RESVERATROL, IVERMECTIN, AND RELATED CHEMICALLY MODIFIED COMPOUNDS TO TREAT OR PREVENT VIRAL INFECTIONS” (Ardestat Biologics, LLC, priority 2021, published 2023).
# Biological target: T1, MMP9 (Homo sapiens, UniProt P14780)
# T1 construct: purchased Abcam ab139449
# Experiment: MMP9 inhibitor screening assay kit (Fluorometric), Abcam
# Type: biochemical
# Conditions: result given in words only
# Procedure: Doxycycline, resveratrol, colchicine, and ivermectin were assessed at the indicated concentrations using the MMP9 Inhibitor Screening Assay Kit (abcam), according to the manufacturer's instructions.
# Inhibition of MMP9 was determined using the MMP9 inhibitor screening assay kit (Fluorometric) from Abcam (Cat#ab139449) according to the manufacturer's instructions. Unquenching of a fluorogenic peptide by MMP9 was monitored for 10 minutes in the presence or absence of inhibitory compounds, using a fluorescent microplate reader (Ex/Em=328/420). Reaction velocity (V) in RFU/minute was used to determine the % of remaining enzymatic activity, relative to untreated control, according to the following equation: (Vinhibitor/Vcontrol)×100 (FIG. 2).
# T1 sequence (P14780 107-444 limits assumed): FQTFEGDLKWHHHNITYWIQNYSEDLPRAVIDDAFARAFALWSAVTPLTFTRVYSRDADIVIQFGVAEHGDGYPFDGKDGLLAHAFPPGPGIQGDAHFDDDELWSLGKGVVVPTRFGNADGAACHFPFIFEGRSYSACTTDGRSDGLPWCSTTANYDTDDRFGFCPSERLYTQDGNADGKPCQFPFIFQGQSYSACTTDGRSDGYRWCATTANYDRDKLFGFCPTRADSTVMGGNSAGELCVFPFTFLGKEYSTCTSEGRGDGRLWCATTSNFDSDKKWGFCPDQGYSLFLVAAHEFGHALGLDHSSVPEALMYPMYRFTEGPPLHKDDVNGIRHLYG
Molecule,"inhibition of MMP activity (% of remaining enzymatic activity relative to untreated control) (fluorogenic peptide unquenching monitored 10 minutes, FIG. 2)",interference with the MMP-inhibiting effects of doxycycline and resveratrol
Oc1ccc(C=Cc2cc(O)cc(O)c2)cc1 [resveratrol],inhibited MMP activity but to a much more modest extent compared to doxycycline,
ivermectin,,has not been shown to interfere with these MMP-inhibiting effects
